Experimental findings from ChEMBL document CHEMBL1201862, “PubChem BioAssay data set” (2004) are described below.

Each structure is given as a SMILES string. Active and inactive are the calls of the source.

For one assay, the target named is Cytochrome P450 2C19 (Homo sapiens, UniProt P33261). Description: Cytochrome panel assay with activity outcomes. Panel member name: p450-cyp2c19 Compounds with AC50 equal or less than 10 uM are considered active. To be noted: read-out: AC50. The class given is functional.
Sequence of Cytochrome P450 2C19 (P33261 whole entry): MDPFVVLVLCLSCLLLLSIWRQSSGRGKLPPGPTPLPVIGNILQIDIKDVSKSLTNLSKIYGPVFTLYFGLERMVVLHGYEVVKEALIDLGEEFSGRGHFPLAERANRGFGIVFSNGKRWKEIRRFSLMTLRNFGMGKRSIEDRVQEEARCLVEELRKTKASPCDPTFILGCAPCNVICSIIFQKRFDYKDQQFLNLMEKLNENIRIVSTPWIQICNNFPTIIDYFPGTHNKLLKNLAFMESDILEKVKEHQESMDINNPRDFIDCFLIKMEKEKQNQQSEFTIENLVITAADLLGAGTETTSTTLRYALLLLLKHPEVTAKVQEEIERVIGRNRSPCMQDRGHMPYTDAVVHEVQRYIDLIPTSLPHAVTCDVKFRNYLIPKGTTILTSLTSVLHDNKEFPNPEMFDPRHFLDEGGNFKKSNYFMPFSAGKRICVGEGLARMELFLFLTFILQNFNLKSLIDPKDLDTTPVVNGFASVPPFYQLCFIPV
Take `CCOC(=O)c1cnn(-c2cc(Oc3ccccc3)ncn2)c1N`: the half-maximal activity concentration (AC50) – broadly, the midpoint of the concentration-response curve, whichever way the signal moves – was 31.6 µM (inconclusive).
In the case of `C[C@@H](Cc1ccccc1)NCCC(c1ccccc1)c1ccccc1`, the AC50 is 7.94 µM (inconclusive).
Take `CCN1CC=C2C(C#N)=C(N)C(C#N)(C#N)[C@H](c3ccoc3)[C@H]2C1`: the AC50 is 39.8 µM (inconclusive).
Still for that read-out and setting: the same measure for `CC1CCC2(CC1)N=C(N)Nc1nc3ccccc3n12` (stereo not given): 17.8 µM (inconclusive); for `COc1ccc(-n2c(=O)c(CCc3ccccc3)nc3cnc(N4CCOCC4)nc32)cc1`: 25.1 µM (inconclusive).

For another assay, the target named is T1, Corticotropin-releasing factor receptor 2/Corticotropin-releasing factor-binding protein (Homo sapiens, UniProt P24387+Q13324).
T1 sequence (Q13324 whole entry): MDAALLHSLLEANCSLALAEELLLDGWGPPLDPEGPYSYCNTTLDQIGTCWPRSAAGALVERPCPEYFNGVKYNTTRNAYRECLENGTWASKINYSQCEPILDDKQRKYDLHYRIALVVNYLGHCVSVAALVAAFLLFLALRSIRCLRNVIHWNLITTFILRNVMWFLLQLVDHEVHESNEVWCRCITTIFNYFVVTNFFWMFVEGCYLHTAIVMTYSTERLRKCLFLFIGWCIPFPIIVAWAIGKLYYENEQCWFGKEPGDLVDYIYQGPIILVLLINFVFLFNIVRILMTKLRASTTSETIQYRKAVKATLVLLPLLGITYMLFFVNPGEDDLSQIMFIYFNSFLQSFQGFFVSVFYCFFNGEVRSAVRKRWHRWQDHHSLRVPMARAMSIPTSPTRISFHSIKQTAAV
T1 sequence (P24387 whole entry): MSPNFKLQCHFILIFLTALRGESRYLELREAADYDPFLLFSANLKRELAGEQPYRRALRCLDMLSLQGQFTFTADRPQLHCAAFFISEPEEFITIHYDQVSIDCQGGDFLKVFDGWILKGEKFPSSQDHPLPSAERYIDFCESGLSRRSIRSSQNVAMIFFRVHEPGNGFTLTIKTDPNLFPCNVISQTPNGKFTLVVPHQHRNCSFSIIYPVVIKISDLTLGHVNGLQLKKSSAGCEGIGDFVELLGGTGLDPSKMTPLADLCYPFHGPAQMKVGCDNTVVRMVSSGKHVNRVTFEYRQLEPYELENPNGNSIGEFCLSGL
Description: activators of CRF receptor 2 with binding protein – uHTS hits, confirmation (AID 602473). The conditions noted are these: read-out: EC50_Mean. The class given is functional.
Regarding `Cc1ccc2c(c1)N(C(=O)CCC(=O)N1CCN(c3ccccn3)CC1)CCO2`, the EC50 was > 53 µM (inactive).
The same measure, in the same setting: the same measure for `CC1(C)CC2=Nc3ccccc3NCC2=C(O)C1`: > 53 µM (inactive); for `CC(Oc1ccc(Br)cc1)C(=O)Nc1ccc(S(=O)(=O)NC2=NCCCCC2)cc1` (stereo not given): 4.66 µM (active); for `CCOc1ccc(C2=CC(c3ccccc3)n3ncnc3N2)cc1` (stereo not given): > 53 µM (inactive).
Same read-out and setting: then `Cc1nn(CC(=O)N(C)C2(C#N)CCCCC2)c(C)c1[N+](=O)[O-]`, with > 53 µM (inactive).
Still for that read-out and setting: the same measure for `Cc1ccc(S(=O)(=O)NCC(=O)N(CC(=O)NCc2ccco2)Cc2ccccc2)cc1`: 10.1 µM (active).

The next assay deals with T2, Heat shock factor protein 1 (Mus musculus, UniProt P38532).
T2 sequence (P38532 whole entry): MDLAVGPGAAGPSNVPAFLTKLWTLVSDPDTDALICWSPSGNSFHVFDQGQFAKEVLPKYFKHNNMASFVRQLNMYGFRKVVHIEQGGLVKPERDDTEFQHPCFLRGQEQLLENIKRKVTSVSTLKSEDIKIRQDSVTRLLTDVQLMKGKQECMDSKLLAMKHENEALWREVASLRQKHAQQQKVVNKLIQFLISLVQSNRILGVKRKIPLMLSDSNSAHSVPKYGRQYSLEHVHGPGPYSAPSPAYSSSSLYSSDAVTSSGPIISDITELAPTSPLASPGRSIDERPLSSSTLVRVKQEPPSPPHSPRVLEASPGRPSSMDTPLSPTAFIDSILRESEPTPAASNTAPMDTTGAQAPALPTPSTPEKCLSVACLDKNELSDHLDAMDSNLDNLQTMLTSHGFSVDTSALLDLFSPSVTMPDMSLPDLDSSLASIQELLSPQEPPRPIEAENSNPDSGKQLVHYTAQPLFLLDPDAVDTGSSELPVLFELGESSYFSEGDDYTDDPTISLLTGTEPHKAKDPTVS
In words: decrease of HSF1-responsive luciferase luminescence – cell-based, NIH3T3, dose retest, confirmation (AID 2382).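 Further: NIH3T3 fibroblasts with HSF1-driven luciferase reporter stressed by proteasome inhibitor MG132; luminescence from HSF1-driven luciferase expression after 8 hours of MG132 stress.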 The class given is functional.
Details: not given
As to `Cc1oc(C(=O)O)cc1COc1ccc2c3c(c(=O)oc2c1C)CCC3`, the EC50 is reported as > 195 µM (not active).
Still for that read-out and setting: the same measure for `Cc1cc(C)c2cc(CN(CCN(C)C)C(=O)Nc3ccccc3Cl)c(O)nc2c1`: > 195 µM (not active).
`COc1ccc2c(COC(=O)CCS(=O)(=O)c3ccc(C)cc3)cc(=O)oc2c1`: the EC50 is recorded as > 195 µM (not active).
As to `O=C(NC(=O)c1cccc(F)c1)OC[C@@H]1CCCN2CCCC[C@H]12`, the EC50 was > 195 µM (not active).
Still for that read-out and setting: the same measure for `Cc1ccc(-c2nn[nH]n2)o1`: > 195 µM (not active); for `Cc1nn(C(C)C(=O)NCCCc2ccccc2)c(=O)c2cc3occc3n12` (stereo not given): > 195 µM (not active); for `Cc1ccc(C)c(NC(=O)CCc2nnc3ccc(NCc4ccco4)nn23)c1`: > 195 µM (not active).
Still for that read-out and setting: then `O=C(CSc1nnc(CNC(=O)c2cccs2)o1)NCc1ccc(F)cc1`, with > 195 µM (not active).
The same measure, in the same setting: the same measure for `CCOC(=O)c1c(NC(=O)CN2CCCCC2)sc2c1CCC(C=O)=C2Cl`: > 195 µM (not active); for `COc1ccc2oc(=O)c(N3C(=O)c4ccccc4C3=O)cc2c1`: > 195 µM (not active).
With `COc1ccc(NC(=O)CCc2nnc3ccc(N4CCC(C)CC4)nn23)cc1OC`, the EC50 is given as > 195 µM (not active).
The same measure, in the same setting: the same measure for `Cc1cccc(C)c1NC(=O)c1cccnc1`: > 195 µM (not active).
Still for that read-out and setting: the same measure for `Cc1cc(C)nc(NNC2=CC(=[N+]3CCCCC3)CC(C)(C)C2)n1`: > 195 µM (not active); for `CC1CCC2(CC1)N=C(N)Nc1nc3ccccc3n12` (stereo not given): > 195 µM (not active).
On the same count and under the same terms, the same measure for `Cc1onc(-c2ccccc2)c1C(=O)Nc1sc2c(c1C(N)=O)CCC2`: > 195 µM (not active).
Regarding `COc1cc(C2C(C#N)=C(N)N(N(C)C)C3=C2C(=O)CC(C)(C)C3)ccc1O` (stereo not given), the EC50 is > 195 µM (not active).
`CCOc1ccccc1N1CCN(CC(=O)NC(C)c2ccccc2)CC1` (stereo not given): the EC50 is > 195 µM (not active).
As for `CCOc1ccc(/C=N/NC(=O)C(O)c2ccccc2)c(O)c1` (stereo not given), the EC50 is > 195 µM (not active).
On the same count and under the same terms, the same measure for `COc1ccc(/N=C2/SC(C(=O)N3CCN(c4ccccc4)CC3)CC(=O)N2C)cc1` (stereo not given): > 195 µM (not active).

In a further assay the target is T3, Rac GTPase-activating protein 1 (Homo sapiens, UniProt Q9H0H5).
T3 sequence (Q9H0H5 whole entry): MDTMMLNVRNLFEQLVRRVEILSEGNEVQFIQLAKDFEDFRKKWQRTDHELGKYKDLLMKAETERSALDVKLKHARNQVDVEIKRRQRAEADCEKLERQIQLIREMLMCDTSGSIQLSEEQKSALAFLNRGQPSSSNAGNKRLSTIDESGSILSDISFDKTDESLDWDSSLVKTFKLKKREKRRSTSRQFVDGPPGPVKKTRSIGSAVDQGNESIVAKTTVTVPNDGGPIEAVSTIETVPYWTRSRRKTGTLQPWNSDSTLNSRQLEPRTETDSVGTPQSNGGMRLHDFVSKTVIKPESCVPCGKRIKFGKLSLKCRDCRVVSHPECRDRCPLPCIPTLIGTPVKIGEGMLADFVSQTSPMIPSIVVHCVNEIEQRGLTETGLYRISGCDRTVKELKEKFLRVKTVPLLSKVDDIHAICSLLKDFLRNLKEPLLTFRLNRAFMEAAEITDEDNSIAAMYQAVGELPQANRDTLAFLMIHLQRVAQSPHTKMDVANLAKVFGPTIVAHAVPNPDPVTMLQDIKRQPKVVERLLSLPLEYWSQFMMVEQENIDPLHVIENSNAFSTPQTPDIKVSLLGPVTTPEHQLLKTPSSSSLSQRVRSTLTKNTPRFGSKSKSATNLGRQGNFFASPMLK
In words: blockers of MgcRacGAP-driven Rac1 GTP hydrolysis – biochemical, ADP Hunter fluorescence, primary and confirmatory, confirmation (AID 624330).
Details: not given
The class given is functional.
On to `COc1ccc(CN(C)CCc2ccccn2)cc1OC`, for which the IC50 (usually the concentration needed to halve the response being measured) was 74.6 µM (active).
In the case of `CCOC(=O)C1CCN(C2=NC(=O)/C(=C/c3ccc(O)cc3)S2)CC1`, the IC50 was 21.2 µM (active).
Same read-out and setting: the same measure for `O=C(Cc1coc2cc(O)ccc12)NNC(=O)c1cccs1`: 32.7 µM (active).
The same measure, in the same setting: the same measure for `COc1cc(/C=C/C(=O)OCC(=O)NCc2ccc(F)cc2)ccc1O`: 36.3 µM (active); for `COc1cc(/C=C/c2nc(O)c3ccccc3n2)ccc1O`: 41.4 µM (active).
For `COc1ccc(NC2CCCN(C(=O)COc3ccc(C(C)=O)cc3)C2)cc1` (stereo not given), the IC50 was 84 µM (active).
On the same count and under the same terms, then `C=CCn1c(N/N=C/c2ccc(O)cc2)nc2ccccc2c1=O`, with 46.8 µM (active).
With `COCCNC(=O)Cn1cc(/C=N/NC(=O)c2ccc(Oc3ccc(O)cc3)cc2)c2ccccc21`, the IC50 was 53.3 µM (active).
The same measure, in the same setting: then `COc1cc(/C=N/Nc2ccc(C(F)(F)F)cn2)ccc1O`, with 36.3 µM (active).

The target in the next assay is T4, Cytochrome P450 1A2 (Homo sapiens, UniProt P05177).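 Further: PubChem cytochrome P450 panel assay, CYP1A2 panel member.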
T4 sequence (P05177 whole entry): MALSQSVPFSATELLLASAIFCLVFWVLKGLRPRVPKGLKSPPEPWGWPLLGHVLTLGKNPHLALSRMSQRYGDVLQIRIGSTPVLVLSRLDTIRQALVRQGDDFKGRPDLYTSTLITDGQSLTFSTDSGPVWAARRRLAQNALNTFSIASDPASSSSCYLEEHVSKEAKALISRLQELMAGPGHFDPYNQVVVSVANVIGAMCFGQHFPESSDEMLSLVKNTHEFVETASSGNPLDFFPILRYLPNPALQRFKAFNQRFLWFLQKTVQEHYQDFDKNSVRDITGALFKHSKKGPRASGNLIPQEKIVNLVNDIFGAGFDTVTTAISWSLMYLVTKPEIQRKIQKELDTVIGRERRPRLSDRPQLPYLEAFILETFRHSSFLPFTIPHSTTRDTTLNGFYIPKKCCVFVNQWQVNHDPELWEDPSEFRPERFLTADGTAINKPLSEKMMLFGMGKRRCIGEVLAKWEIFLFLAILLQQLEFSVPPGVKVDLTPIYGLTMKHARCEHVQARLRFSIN
Details: not given
For `CCOC(=O)c1cnn(-c2cc(Oc3ccccc3)ncn2)c1N`, the AC50 is 14.1 µM (inconclusive).
The same measure, in the same setting: the same measure for `C[C@@H](Cc1ccccc1)NCCC(c1ccccc1)c1ccccc1`: 15.8 µM (inconclusive); for `CCN1CC=C2C(C#N)=C(N)C(C#N)(C#N)[C@H](c3ccoc3)[C@H]2C1`: 39.8 µM (inconclusive); for `CC1CCC2(CC1)N=C(N)Nc1nc3ccccc3n12` (stereo not given): 12.6 µM (inconclusive).
Still for that read-out and setting: then `COc1ccc(-n2c(=O)c(CCc3ccccc3)nc3cnc(N4CCOCC4)nc32)cc1`, with 15.8 µM (inconclusive); and `CSc1nc(O)c2c(n1)N=C(C)/C(=C(/O)OC(C)C)C2c1ccncc1` (stereo not given), with 20 µM (inconclusive).
